Values of other authors, collected in publication PMC5774433 (MedChemComm, 2017).

Tested on: menin

increase in the binding affinity compared to its non-fluorinated counterpart: over 20 fold
Structure (SMILES): CC1(C)CN=C(N2CCN(c3ncnc4sc(CC(F)(F)F)cc34)CC2)S1 [MI-2-2]
